Data: US12629348B2, “Method and composition for treating osteoarthritis” (Vireo Systems, Inc., priority 2013, dated 2026)

System: canines having OA
Experiment: Double-blind randomized trial in OA canines: owner assessment of pain and mobility (Helsinki chronic pain index, HCPI)
Assay type: in vivo, canine
Method: The following example evaluates the effectiveness of Alpha-GEE on both pain and mobility in a double-blind randomized trial in canines having OA. […] Together these findings provide clinical evidence of the effectiveness of treatments with Alpha-GEE in reducing the pain and restricted mobility of canines with OA.
The double-blind study was performed on a total of 30 adult canines of various breeds in five different private practice clinics. Owner consent was obtained prior to participation in the study. Each clinic was responsible for enrolling 6 canines into the study. Inclusion criteria for the study consisted of clinical assessment and radiograph confirmation of OA in at least one joint and a score of 22 or greater on the Helsinki chronic pain index (“HCPI”). Use of NSAIDs or other dietary supplements for OA were allowed, provided the current treatment regimens had not been altered for a period of at least three months. A randomized block design was used with canines assigned in a one to one ratio into either placebo (36 mg/kg/day maltose-dextran; Vireo Resources, Plattsmouth, NE) or Alpha-GEE (36 mg/kg/day; Vireo Resources, Plattsmouth, NE) treatment group. The block size was six canines, corresponding to the total number of canines enrolled from each clinic. Group assignments for each canine were blinded to both the owners and attending veterinarian until all the data was collected and reported. Both Alpha-GEE and placebo were provided in 400 mg capsules and owners were instructed on the proper method for daily oral administration of capsules to their canines and provided with the appropriate number of capsules for the duration of the 2-week study. Blood samples were taken at both the start and conclusion of the two-week trial period to monitor for changes in blood chemistry as well as potential changes in inflammatory markers as described below. Owners completed the HCPI prior to starting the study, one-week after starting the study, and a final time at the conclusion of the study at two-weeks.
Statistical evaluations of pain (HCPI), mobility (pedometer readings), and inflammatory markers were performed using ANOVA and Student Newman Keuls post-hoc comparison of means.
Owner assessment of pain and mobility in canines participating in the trial were based on the HCPI. The HCPI is a method for appraisal of pain and mobility in canines. The assessment is based on owner responses to eleven questions with a numerical answer between 0-4. Scoring on the HCPI ranges from 0 to 44, with higher numbers reflecting more pain and immobility present in the canine. Canines in both placebo and treatment group had similar initial pre-trial HCPI scores. […]

Substance: ethyl (α-guanido-methyl) ethanoate [Alpha-GEE]
- reduction in HCPI score (after the first week, 36 mg/kg/day oral, not statistically different from placebo): 10-15%
- HCPI score, post-trial value (after two weeks, 36 mg/kg/day oral, pre-trial value 28, scale 0 to 44): 15
- HCPI scores at the conclusion of the study versus placebo (two weeks, p<0.001): significantly different
- magnitude of change in HCPI scores during the entire trial (mean+SD) (two weeks, range 2 to 20, placebo 3+4): 13+7
